We go through one molecule from publication PMC9147192, “Small Molecule Arranged Thermal Proximity Coaggregation (smarTPCA)—A Novel Approach to Characterize Protein–Protein Interactions in Living Cells by Similar Isothermal Dose–Responses” (International Journal of Molecular Sciences, 2022).

Molecules are shown by their SMILES.

Assay [1] has as its target T1, DDX18 (Homo sapiens, UniProt Q9NVP1).
T1 construct: endogenous in cells; host or cells: HL-60 (ATCC CCL-240)
T1 sequence (Q9NVP1 1-670): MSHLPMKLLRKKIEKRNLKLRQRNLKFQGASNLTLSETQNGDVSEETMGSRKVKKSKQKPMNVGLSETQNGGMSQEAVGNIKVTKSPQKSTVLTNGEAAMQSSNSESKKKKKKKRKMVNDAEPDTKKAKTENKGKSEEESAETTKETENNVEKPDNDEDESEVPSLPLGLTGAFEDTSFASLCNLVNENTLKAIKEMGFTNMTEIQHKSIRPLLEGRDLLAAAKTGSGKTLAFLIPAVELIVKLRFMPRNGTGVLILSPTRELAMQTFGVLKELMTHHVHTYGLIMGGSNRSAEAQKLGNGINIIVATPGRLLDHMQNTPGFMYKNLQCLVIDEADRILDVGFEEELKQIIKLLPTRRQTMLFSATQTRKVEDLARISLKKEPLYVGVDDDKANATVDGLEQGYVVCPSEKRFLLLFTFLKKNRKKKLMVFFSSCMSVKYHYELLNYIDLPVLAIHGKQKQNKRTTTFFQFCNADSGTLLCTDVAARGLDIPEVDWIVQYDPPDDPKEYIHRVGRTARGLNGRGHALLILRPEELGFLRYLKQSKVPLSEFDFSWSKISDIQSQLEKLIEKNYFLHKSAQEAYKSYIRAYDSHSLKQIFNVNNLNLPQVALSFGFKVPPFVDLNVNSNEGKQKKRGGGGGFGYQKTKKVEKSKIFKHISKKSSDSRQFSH
In words: TPP-CCR in living HL-60 cells. The assay is classed as cell-based.

The target of assay [2] is T2, PDIA6 (Homo sapiens, UniProt Q15084).
T2 construct: endogenous in cells; host or cells: HL-60 (ATCC CCL-240)
T2 sequence (Q15084 20-440): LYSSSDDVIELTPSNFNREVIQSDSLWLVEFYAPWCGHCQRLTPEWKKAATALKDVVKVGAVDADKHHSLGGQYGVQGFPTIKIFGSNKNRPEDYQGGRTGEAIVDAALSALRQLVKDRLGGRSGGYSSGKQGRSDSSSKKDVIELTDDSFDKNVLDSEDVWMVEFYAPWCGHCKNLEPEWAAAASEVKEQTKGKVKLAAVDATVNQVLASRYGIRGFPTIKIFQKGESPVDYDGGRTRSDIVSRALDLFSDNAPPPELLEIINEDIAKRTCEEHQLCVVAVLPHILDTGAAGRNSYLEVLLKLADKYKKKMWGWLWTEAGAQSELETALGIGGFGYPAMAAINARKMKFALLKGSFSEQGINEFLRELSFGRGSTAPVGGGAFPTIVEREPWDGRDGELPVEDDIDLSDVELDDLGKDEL
Briefly: TPP-CCR in living HL-60 cells. The assay is classed as cell-based.

[3] abbreviates: living HL-60 cells, […] °C, TMT-MS.

Turning to `Cc1cnc(Nc2ccc(F)cc2Cl)nc1-c1c[nH]c(C(=O)N[C@H](CO)c2cccc(Cl)c2)c1` [ERK 11e], the Hill slope was determined as 0.20 in assay [1] (TPP-CCR, living cells, DDX18) and 1.33 in assay [2] (TPP-CCR, living cells, PDIA6). For the same molecule, the “Hill slope (DDX18)” value in assay [1] (setting [3]) amounted to 0.20. The EC50 is 200 nM in assay [1] (living HL-60 cells, […] °C, TMT-MS, read-out: pEC50 (DDX18) (converted)) and 3550 nM in assay [2] (living HL-60 cells, […] °C, TMT-MS, read-out: pEC50 (PDIA6) (converted)). In assay [2] (setting [3]), the “Hill slope (PDIA6)” value was 1.33.

Broadly, the Hill slope is a measure of the steepness of the concentration-response curve.
